According to PubChem BioAssay (NCI):
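A five-concentration, 48-hour dose response in 96-well plates underlies each endpoint, interpolated linearly between surrounding concentrations. Abbreviation: GI50, concentration required for 50% inhibition of growth. TGI marks complete inhibition of growth.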

Columns and labels:
Assay in all cases: growth of human tumour cells (NCI), 48 h
[1] = system: 786-0 renal
[2] = system: A498 renal
[3] = system: A549 NSCLC
[4] = system: ACHN renal
[5] = system: CAKI-1 renal
[6] = system: CCRF-CEM leukemia
[7] = system: COLO 205 colon
[8] = system: DLD-1 colon
[9] = system: DMS 114 small cell lung
[10] = system: DMS 273 small cell lung
[11] = system: EKVX NSCLC
[12] = system: HCC-2998 colon
[13] = system: HCT-116 colon
[14] = system: HCT-15 colon
[15] = system: HL-60(TB) leukemia
[16] = system: HOP-62 NSCLC
[17] = system: HOP-92 NSCLC
[18] = system: HT29 colon
[19] = system: IGROV1 ovarian
[20] = system: K-562 leukemia
[21] = system: KM12 colon
[22] = system: KM20L2 colon
[23] = system: LOX IMVI melanoma
[24] = system: LXFL 529 NSCLC
[25] = system: M14 melanoma
[26] = system: M19-MEL melanoma
[27] = system: MALME-3M melanoma
[28] = system: MOLT-4 leukemia
[29] = system: NCI-H226 lung
[30] = system: NCI-H23 lung
[31] = system: NCI-H460 lung
[32] = system: NCI-H522 lung
[33] = system: OVCAR-3 ovarian
[34] = system: OVCAR-4 ovarian
[35] = system: OVCAR-5 ovarian
[36] = system: OVCAR-8 ovarian
[37] = system: RPMI-8226 leukemia
[38] = system: RXF 393 renal
[39] = system: SF-268 CNS
[40] = system: SF-295 CNS
[41] = system: SF-539 CNS
[42] = system: SK-MEL-2 melanoma
[43] = system: SK-MEL-28 melanoma
[44] = system: SK-MEL-5 melanoma
[45] = system: SK-OV-3 ovarian
[46] = system: SN12C renal
[47] = system: SNB-19 CNS
[48] = system: SNB-75 CNS
[49] = system: SNB-78 CNS
[50] = system: SR leukemia
[51] = system: SW-620 colon
[52] = system: TK-10 renal
[53] = system: U251 CNS
[54] = system: UACC-257 melanoma
[55] = system: UACC-62 melanoma
[56] = system: UO-31 renal
[57] = system: XF 498 CNS
[58] = system: HOP-18 NSCLC

`CCC[CH2][Sn]([CH2]CCC)([O]C(=O)CN)[O]C(=O)CN` showed a GI50 [1] of 33 µM, a TGI [1] of over 100 µM and a GI50 [2] of 44.8 µM. The TGI [2] was over 100 µM, the GI50 [3] was over 100 µM and the TGI [3] was over 100 µM. It also gave a GI50 [4] of 48.1 µM, a TGI [4] of over 100 µM and a GI50 [5] of 14.7 µM. The TGI [5] was 51.1 µM, the GI50 [6] was 5.93 µM and the TGI [6] was 51.8 µM. It also gave a GI50 [7] of 42.9 µM, a TGI [7] of over 100 µM and a GI50 [8] of 92.7 µM. The TGI [8] was over 100 µM, the GI50 [9] was 17.9 µM and the TGI [9] was 46.5 µM. It also gave a GI50 [10] of 38.6 µM, a TGI [10] of over 100 µM and a GI50 [11] of 16 µM. The TGI [11] was 51.2 µM, the GI50 [12] was 93.3 µM and the TGI [12] was over 100 µM. For the same compound, the GI50 [13] was 71.2 µM, the TGI [13] was over 100 µM and the GI50 [14] was 26.9 µM. For the same compound, the TGI [14] was 63.6 µM, the GI50 [15] was 18.5 µM and the TGI [15] was 65 µM. For the same compound, the GI50 [16] was 7.25 µM, the TGI [16] was over 100 µM and the GI50 [17] was 73.2 µM. The TGI [17] was over 100 µM, the GI50 [18] was over 100 µM and the TGI [18] was over 100 µM. It also gave a GI50 [19] of over 100 µM, a TGI [19] of over 100 µM and a GI50 [20] of 18.7 µM. The TGI [20] was over 100 µM, the GI50 [21] was over 100 µM and the TGI [21] was over 100 µM. The GI50 [22] was 63.6 µM, the TGI [22] was over 100 µM and the GI50 [23] was 22.1 µM. For the same compound, the TGI [23] was 59.7 µM, the GI50 [24] was 11.4 µM and the TGI [24] was 26 µM. For the same compound, the GI50 [25] was 36.7 µM, the TGI [25] was over 100 µM and the GI50 [26] was 49.7 µM. For the same compound, the TGI [26] was over 100 µM, the GI50 [27] was 6.1 µM and the TGI [27] was 41.2 µM. It also gave a GI50 [28] of 29.1 µM, a TGI [28] of over 100 µM and a GI50 [29] of over 100 µM. The TGI [29] was over 100 µM, the GI50 [30] was 21.1 µM and the TGI [30] was 70.2 µM. It also gave a GI50 [31] of over 100 µM, a TGI [31] of over 100 µM and a GI50 [32] of 11.6 µM. The TGI [32] was 38 µM, the GI50 [33] was 27.8 µM and the TGI [33] was over 100 µM. The GI50 [34] was over 100 µM, the TGI [34] was over 100 µM and the GI50 [35] was over 100 µM. It also gave a TGI [35] of over 100 µM, a GI50 [36] of 69 µM and a TGI [36] of over 100 µM. For the same compound, the GI50 [37] was 15.3 µM, the TGI [37] was 54.5 µM and the GI50 [38] was 16.2 µM. For the same compound, the TGI [38] was 44.3 µM, the GI50 [39] was 20.6 µM and the TGI [39] was 71.6 µM. It also gave a GI50 [40] of 34.5 µM, a TGI [40] of over 100 µM and a GI50 [41] of 57 µM. For the same compound, the TGI [41] was over 100 µM, the GI50 [42] was 18.5 µM and the TGI [42] was 48.8 µM. It also gave a GI50 [43] of 29.2 µM, a TGI [43] of over 100 µM and a GI50 [44] of 66.6 µM. The TGI [44] was over 100 µM, the GI50 [45] was over 100 µM and the TGI [45] was over 100 µM. The GI50 [46] was 57.2 µM, the TGI [46] was over 100 µM and the GI50 [47] was 45.5 µM. It also gave a TGI [47] of over 100 µM, a GI50 [48] of 29.6 µM and a TGI [48] of over 100 µM. For the same compound, the GI50 [49] was 21.6 µM, the TGI [49] was 72 µM and the GI50 [50] was 22.9 µM. It also gave a TGI [50] of 95.6 µM, a GI50 [51] of 18.1 µM and a TGI [51] of 37 µM. It also gave a GI50 [52] of 38.4 µM, a TGI [52] of over 100 µM and a GI50 [53] of 26 µM. It also gave a TGI [53] of 80.7 µM, a GI50 [54] of 50.4 µM and a TGI [54] of over 100 µM. The GI50 [55] was 17.5 µM, the TGI [55] was 60.5 µM and the GI50 [56] was over 100 µM. For the same compound, the TGI [56] was over 100 µM, the GI50 [57] was 19.6 µM and the TGI [57] was 48 µM.

For `O=c1oc(-c2ccccc2)cn1-c1ccccc1`, the TGI [1] was over 100 µM, the TGI [6] was over 100 µM and the TGI [8] was over 100 µM. It also gave a TGI [10] of over 100 µM, a TGI [12] of over 100 µM and a TGI [13] of over 100 µM. The TGI [15] was over 100 µM, the TGI [58] was over 100 µM and the TGI [16] was over 100 µM. For the same compound, the TGI [20] was over 100 µM, the TGI [22] was over 100 µM and the TGI [23] was over 100 µM. The TGI [24] was over 100 µM, the TGI [25] was over 100 µM and the TGI [28] was over 100 µM. The TGI [29] was over 100 µM, the TGI [30] was over 100 µM and the TGI [31] was over 100 µM. It also gave a TGI [32] of over 100 µM, a TGI [37] of over 100 µM and a TGI [38] of over 100 µM. It also gave a TGI [41] of over 100 µM, a TGI [43] of over 100 µM and a TGI [46] of over 100 µM. The TGI [47] was over 100 µM, the TGI [48] was over 100 µM and the TGI [49] was over 100 µM. It also gave a TGI [53] of over 100 µM and a TGI [57] of over 100 µM.
